We go through eight substances from patent US20110288154A1, “RNA Interference Mediated Inhibition of Epithelial Sodium Channel (ENaC) Gene Expression Using Short Interfering Nucleic Acid (siNA)” (MERCK & CO., INC., priority 2008, published 2011).

[invAb] = inverted abasic unit; m = 2'-O-methyl; r = 2'-OH (RNA); f = 2'-fluoro

The test system of data set [1] is ENaCα mRNA. The data set can be described thus: Screening of ENaCα siNAs in human A549 cells (quantitative RT-PCR). The format is cell-based. Further details: Percent Reduction of the ENaCα mRNA relative to a non-targeting control siNA (NTC): concentration or dose not given beside the values. As to conditions: for Avg ENaCα Expression / Mean (level of ENaCα expression normalized to the level of GAPDH) / Percent Reduction of the ENaCα mRNA relative to a non-targeting control siNA (NTC) / Avg GAPDH Expression: human A549 cells, n = 3; for Avg ENaCα Expression: 25 nM siNA with Lipofectamine 2000, harvested 24 hours post-transfection; for Mean (level of ENaCα expression normalized to the level of GAPDH) / Percent Reduction of the ENaCα mRNA relative to a non-targeting control siNA (NTC) / Avg GAPDH Expression: 24 hours post-transfection; for Avg GAPDH Expression: housekeeping gene used for normalisation; for IC50 / Human % KD (efficacy of ENaCα mRNA knockdown): human cell line; for IC50: dose response, read-out: Human IC50 (potency of ENaCα mRNA knockdown); for Human % KD (efficacy of ENaCα mRNA knockdown): summary. In outline: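 ENaCα knockdown in human A549 cells is measured by qRT-PCR (standard-curve quantitation), normalized to a non-targeting siNA control. Lipofectamine 2000 complexes deliver 25 nM siNA per well (lipid 2.33 μg/ml, held constant in dose-response); IC50 from a sigmoidal variable-slope fit.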

Data set [2] has as its system rSCNN1A (r ENaCα) mRNA. The data set can be described thus: Screening of ENaCα siNAs in Rat H-4-II-E cells (quantitative RT-PCR). The format is cell-based. More on the design: Percent Reduction of the r ENaCα mRNA relative to a non-targeting control siNA (NTCs) / Rat % KD (efficacy of ENaCα mRNA knockdown): concentration or dose not given beside the values. As to conditions: for Mean (rSCNN1A expression normalized to the level of rGAPDH) / Percent Reduction of the r ENaCα mRNA relative to a non-targeting control siNA (NTCs) / Avg ENaCα Expression (rSCNN1A) / Avg GAPDH Expression (rGAPDH): Rat H-4-II-E cells, n = 3; for Mean (rSCNN1A expression normalized to the level of rGAPDH) / Percent Reduction of the r ENaCα mRNA relative to a non-targeting control siNA (NTCs) / Avg GAPDH Expression (rGAPDH): 24 hours post-transfection; for Avg ENaCα Expression (rSCNN1A): harvested 24 hours post-transfection; for Avg GAPDH Expression (rGAPDH): housekeeping gene used for normalisation; for IC50 / Rat % KD (efficacy of ENaCα mRNA knockdown): rat cell line; for IC50: dose response, read-out: Rat IC50 (potency of ENaCα mRNA knockdown); for Rat % KD (efficacy of ENaCα mRNA knockdown): summary. An outline of the steps:
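Knockdown read-out: qRT-PCR quantified against a standard curve of same-cell-line RNA, ENaCα normalized to species housekeeping gene (GAPDH or 36B4) and expressed versus non-targeting control. Cells received lipid-complexed siNA, 25 nM final, in triplicate and were assayed at 24 h; IC50 by variable-slope sigmoidal fit.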

As for “B cuccuGuccAAccuGGGcA TTB / UGCccAGGuuGGAcAGGAGUU (sense CUCCUGUCCAACCUGGGCATT; antisense UGCCCAGGUUGGACAGGAGUU; siRNA; sense: DNA at AGT, 2'-fluoro at CU, [invAb] at 5' end, 3' end, backbone not given here; antisense: sugars from the 5' end rrrffmmmffmmmfmmmmmmm, backbone not given here) [Site 1738]”, in data set [1], the “Avg ENaCα Expression” value is on record as 77.23, the “Mean (level of ENaCα expression normalized to the level of GAPDH)” value is recorded as 0.71, the “Percent Reduction of the ENaCα mRNA relative to a non-targeting control siNA (NTC)” value is −7.4% and the “Avg GAPDH Expression” value came out at 108.96. Also, in data set [2], the “Mean (rSCNN1A expression normalized to the level of rGAPDH)” value was determined as 0.63, the “Percent Reduction of the r ENaCα mRNA relative to a non-targeting control siNA (NTCs)” value turned out to be 31.1%, the “Avg ENaCα Expression (rSCNN1A)” value was 21.90 and the “Avg GAPDH Expression (rGAPDH)” value is reported as 35.43.

“B uGGGcAGccAGuGGAGccu TTB / AGGcuccAcuGGcuGcccAUU (sense UGGGCAGCCAGUGGAGCCUTT; antisense AGGCUCCACUGGCUGCCCAUU; siRNA; sense: DNA at AGT, 2'-fluoro at CU, [invAb] at 5' end, 3' end, backbone not given here; antisense: sugars from the 5' end rrrffffmffmmffmfffmmm, backbone not given here) [Site 1751]”: in data set [1], the “Avg ENaCα Expression” value is on record as 63.35, the “Mean (level of ENaCα expression normalized to the level of GAPDH)” value came to 0.49, the “Percent Reduction of the ENaCα mRNA relative to a non-targeting control siNA (NTC)” value turned out to be 25.4% and the “Avg GAPDH Expression” value is 128.83. Moreover, in data set [2], the “Mean (rSCNN1A expression normalized to the level of rGAPDH)” value is 0.59, the “Percent Reduction of the r ENaCα mRNA relative to a non-targeting control siNA (NTCs)” value worked out at 36.0%, the “Avg ENaCα Expression (rSCNN1A)” value came out at 26.87 and the “Avg GAPDH Expression (rGAPDH)” value worked out at 45.19.

Regarding “B uGGcuGuGccuAcAucuuc TTB / GAAGAuGuAGGcAcAGccAUU (sense UGGCUGUGCCUACAUCUUCTT; antisense GAAGAUGUAGGCACAGCCAUU; siRNA; sense: DNA at AGT, 2'-fluoro at CU, [invAb] at 5' end, 3' end, backbone not given here; antisense: sugars from the 5' end rrrmmfmfmmmfmfmmffmmm, backbone not given here) [Site 1386]”, in data set [1], the “Avg ENaCα Expression” value is recorded as 72.05, the “Mean (level of ENaCα expression normalized to the level of GAPDH)” value is 0.64, the “Percent Reduction of the ENaCα mRNA relative to a non-targeting control siNA (NTC)” value was found to be 2.8% and the “Avg GAPDH Expression” value is given as 112.63. Further, in data set [2], the “Mean (rSCNN1A expression normalized to the level of rGAPDH)” value came out at 0.48, the “Percent Reduction of the r ENaCα mRNA relative to a non-targeting control siNA (NTCs)” value is listed as 48.3%, the “Avg ENaCα Expression (rSCNN1A)” value worked out at 17.21 and the “Avg GAPDH Expression (rGAPDH)” value is given as 36.31.

“B uGuGGcuGuGccuAcAucu TTB / AGAuGuAGGcAcAGccAcAUU (sense UGUGGCUGUGCCUACAUCUTT; antisense AGAUGUAGGCACAGCCACAUU; siRNA; sense: DNA at AGT, 2'-fluoro at CU, [invAb] at 5' end, 3' end, backbone not given here; antisense: sugars from the 5' end rrrfmfmmmfmfmmffmfmmm, backbone not given here) [Site 1384]”: in data set [1], the “Avg ENaCα Expression” value is listed as 82.65, the “Mean (level of ENaCα expression normalized to the level of GAPDH)” value is 0.80, the “Percent Reduction of the ENaCα mRNA relative to a non-targeting control siNA (NTC)” value is on record as −21.6% and the “Avg GAPDH Expression” value worked out at 103.38. Besides, in data set [2], the “Mean (rSCNN1A expression normalized to the level of rGAPDH)” value stood at 0.66, the “Percent Reduction of the r ENaCα mRNA relative to a non-targeting control siNA (NTCs)” value is reported as 27.8%, the “Avg ENaCα Expression (rSCNN1A)” value is 23.39 and the “Avg GAPDH Expression (rGAPDH)” value is 34.69.

Consider “B uGuGcAAccAGAAcAAAuc TTB / GAUuuGuucuGGuuGcAcAUU (chain 1 UGUGCAACCAGAACAAAUCTT; chain 2 GAUUUGUUCUGGUUGCACAUU; siRNA; B caps on sense ends, letter-case modifications not given here, further chemistry not given here) [Site 782]”, for which, in data set [1], the “Avg ENaCα Expression” value came to 39.99, the “Mean (level of ENaCα expression normalized to the level of GAPDH)” value is 0.61, the “Percent Reduction of the ENaCα mRNA relative to a non-targeting control siNA (NTC)” value amounted to 60.9% and the “Avg GAPDH Expression” value came to 66.25. For the same substance, in data set [1], the IC50 was 0.36 nM and the “Human % KD (efficacy of ENaCα mRNA knockdown)” value is 60-85%. Also, in data set [2], the “Mean (rSCNN1A expression normalized to the level of rGAPDH)” value stood at 0.47, the “Percent Reduction of the r ENaCα mRNA relative to a non-targeting control siNA (NTCs)” value turned out to be 63.7%, the “Avg ENaCα Expression (rSCNN1A)” value stood at 13.71 and the “Avg GAPDH Expression (rGAPDH)” value is recorded as 29.23. In data set [2], the IC50 was 0.8 nM and the “Rat % KD (efficacy of ENaCα mRNA knockdown)” value is recorded as 63%.

Take “B uGuccAAccuGGGcAGccA TTB / UGGcuGcccAGGuuGGAcAUU (sense UGUCCAACCUGGGCAGCCATT; antisense UGGCUGCCCAGGUUGGACAUU; siRNA; sense: DNA at AGT, 2'-fluoro at CU, [invAb] at 5' end, 3' end, backbone not given here; antisense: sugars from the 5' end rrrffmfffmmmffmmmfmmm, backbone not given here) [Site 1742]”: in data set [1], the “Avg ENaCα Expression” value is on record as 58.12, the “Mean (level of ENaCα expression normalized to the level of GAPDH)” value turned out to be 0.53, the “Percent Reduction of the ENaCα mRNA relative to a non-targeting control siNA (NTC)” value stood at 19.7% and the “Avg GAPDH Expression” value came to 109.65. In data set [2], the “Mean (rSCNN1A expression normalized to the level of rGAPDH)” value is recorded as 0.79, the “Percent Reduction of the r ENaCα mRNA relative to a non-targeting control siNA (NTCs)” value was determined as 14.3%, the “Avg ENaCα Expression (rSCNN1A)” value came out at 28.30 and the “Avg GAPDH Expression (rGAPDH)” value turned out to be 35.68.

Take “B uccuGuccAAccuGGGcAG TTB / CUGcccAGGuuGGAcAGGAUU (sense UCCUGUCCAACCUGGGCAGTT; antisense CUGCCCAGGUUGGACAGGAUU; siRNA; sense: DNA at AGT, 2'-fluoro at CU, [invAb] at 5' end, 3' end, backbone not given here; antisense: sugars from the 5' end rrrfffmmmffmmmfmmmmmm, backbone not given here) [Site 1739]”: in data set [1], the “Avg ENaCα Expression” value is on record as 75.77, the “Mean (level of ENaCα expression normalized to the level of GAPDH)” value came to 0.75, the “Percent Reduction of the ENaCα mRNA relative to a non-targeting control siNA (NTC)” value is given as −13.8% and the “Avg GAPDH Expression” value came to 100.60. In data set [2], the “Mean (rSCNN1A expression normalized to the level of rGAPDH)” value is 1.00, the “Percent Reduction of the r ENaCα mRNA relative to a non-targeting control siNA (NTCs)” value is −8.7%, the “Avg ENaCα Expression (rSCNN1A)” value is on record as 32.26 and the “Avg GAPDH Expression (rGAPDH)” value is listed as 35.80.

Turning to “B uuAuGGAuGAuGGuGGcuu TTB / AAGccAccAucAuccAuAAUU (sense UUAUGGAUGAUGGUGGCUUTT; antisense AAGCCACCAUCAUCCAUAAUU; siRNA; B caps on sense ends, letter-case modifications not given here, further chemistry not given here) [Site 1181]”, in data set [1], the “Avg ENaCα Expression” value is listed as 36.75, the “Mean (level of ENaCα expression normalized to the level of GAPDH)” value turned out to be 0.55, the “Percent Reduction of the ENaCα mRNA relative to a non-targeting control siNA (NTC)” value is recorded as 64.7% and the “Avg GAPDH Expression” value came out at 70.22. Moreover, in data set [1], the IC50 is 0.4 nM and the “Human % KD (efficacy of ENaCα mRNA knockdown)” value was 65-80%. In addition, in data set [2], the “Mean (rSCNN1A expression normalized to the level of rGAPDH)” value worked out at 0.41, the “Percent Reduction of the r ENaCα mRNA relative to a non-targeting control siNA (NTCs)” value was 68.1%, the “Avg ENaCα Expression (rSCNN1A)” value came out at 10.34 and the “Avg GAPDH Expression (rGAPDH)” value is on record as 24.78. In addition, in data set [2], the half-inhibitory concentration (IC50) worked out at 1 nM and the “Rat % KD (efficacy of ENaCα mRNA knockdown)” value stood at 68%.
